From publication PMC5762315, “Inhibition of polo-like kinase 4 (PLK4): a new therapeutic option for rhabdoid tumors and pediatric medulloblastoma” (Oncotarget, 2017)
Several values for one entry are separate records, joined by “and”; a condition that tells them apart may be missing. Equal entries are not always repeated.

Key:
Experiment in all cases: LanthaScreen Eu Kinase Binding Assay, panel of 486 biochemical kinase assays
various kinases [1] = target: T1, various kinases (Homo sapiens, UniProt P33981); details: kinase TTK; LanthaScreen Binding
T1 sequence (P33981 1-857): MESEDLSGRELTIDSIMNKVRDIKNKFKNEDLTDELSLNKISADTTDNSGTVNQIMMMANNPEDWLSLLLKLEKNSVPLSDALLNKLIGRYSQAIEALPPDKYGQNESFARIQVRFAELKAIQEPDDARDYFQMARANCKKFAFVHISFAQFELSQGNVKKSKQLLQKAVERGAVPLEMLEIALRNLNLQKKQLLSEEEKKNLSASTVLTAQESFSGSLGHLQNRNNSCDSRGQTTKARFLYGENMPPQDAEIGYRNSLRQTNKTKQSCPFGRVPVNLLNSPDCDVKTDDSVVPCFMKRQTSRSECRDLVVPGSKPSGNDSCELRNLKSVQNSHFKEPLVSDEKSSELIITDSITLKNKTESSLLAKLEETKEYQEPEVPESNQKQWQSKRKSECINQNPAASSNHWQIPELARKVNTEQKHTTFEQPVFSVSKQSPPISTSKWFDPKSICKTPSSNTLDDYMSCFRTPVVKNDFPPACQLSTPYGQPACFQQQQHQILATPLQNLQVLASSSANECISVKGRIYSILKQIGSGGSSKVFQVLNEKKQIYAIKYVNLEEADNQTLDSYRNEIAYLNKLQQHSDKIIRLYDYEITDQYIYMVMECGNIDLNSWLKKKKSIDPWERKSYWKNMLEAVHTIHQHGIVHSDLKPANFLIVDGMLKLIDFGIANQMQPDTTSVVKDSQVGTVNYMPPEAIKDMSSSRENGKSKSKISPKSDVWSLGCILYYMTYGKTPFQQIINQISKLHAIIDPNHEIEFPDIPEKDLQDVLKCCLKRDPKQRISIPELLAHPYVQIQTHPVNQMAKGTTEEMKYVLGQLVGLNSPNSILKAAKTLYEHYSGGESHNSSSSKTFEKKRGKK

various kinases [2] = target: various kinases (Homo sapiens, UniProt P07949, V804M); details: kinase RET V804M; LanthaScreen Binding
various kinases [3] = target: various kinases (Homo sapiens, UniProt Q13555); details: CAMK2G (CaMKII gamma)
various kinases [4] = target: various kinases (Homo sapiens, UniProt O00311); details: CDC7/DBF4
various kinases [5] = target: various kinases (Homo sapiens, UniProt Q16832, N456S); details: DDR2 N456S
various kinases [6] = target: various kinases (Homo sapiens, UniProt Q04771, R206H); details: ACVR1 (ALK2) R206H
various kinases [7] = target: various kinases (Homo sapiens, UniProt Q9HAZ1); details: CLK4
various kinases [8] = target: various kinases (Homo sapiens, UniProt Q9UEW8); details: kinase STK39 (STLK3); LanthaScreen Binding
various kinases [9] = target: various kinases (Homo sapiens, UniProt P52564, S207E/T211E); details: MAP2K6 (MKK6) S207E T211E
various kinases [10] = target: various kinases (Homo sapiens, UniProt Q07912); details: kinase TNK2 (ACK); LanthaScreen Binding
various kinases [11] = target: various kinases (Homo sapiens, UniProt Q99683); details: MAP3K5 (ASK1)
various kinases [12] = target: various kinases (Homo sapiens, UniProt P53667); details: LIMK1
various kinases [13] = target: various kinases (Homo sapiens, UniProt P37023); details: ACVRL1 (ALK1)
various kinases [14] = target: various kinases (Homo sapiens, UniProt Q8NI60); details: ADCK3
various kinases [15] = target: various kinases (Homo sapiens, UniProt Q12866, A708S); details: MERTK (cMER) A708S

Sequence of various kinases (Homo sapiens, UniProt P07949, V804M) (P07949 29-1114 V804M): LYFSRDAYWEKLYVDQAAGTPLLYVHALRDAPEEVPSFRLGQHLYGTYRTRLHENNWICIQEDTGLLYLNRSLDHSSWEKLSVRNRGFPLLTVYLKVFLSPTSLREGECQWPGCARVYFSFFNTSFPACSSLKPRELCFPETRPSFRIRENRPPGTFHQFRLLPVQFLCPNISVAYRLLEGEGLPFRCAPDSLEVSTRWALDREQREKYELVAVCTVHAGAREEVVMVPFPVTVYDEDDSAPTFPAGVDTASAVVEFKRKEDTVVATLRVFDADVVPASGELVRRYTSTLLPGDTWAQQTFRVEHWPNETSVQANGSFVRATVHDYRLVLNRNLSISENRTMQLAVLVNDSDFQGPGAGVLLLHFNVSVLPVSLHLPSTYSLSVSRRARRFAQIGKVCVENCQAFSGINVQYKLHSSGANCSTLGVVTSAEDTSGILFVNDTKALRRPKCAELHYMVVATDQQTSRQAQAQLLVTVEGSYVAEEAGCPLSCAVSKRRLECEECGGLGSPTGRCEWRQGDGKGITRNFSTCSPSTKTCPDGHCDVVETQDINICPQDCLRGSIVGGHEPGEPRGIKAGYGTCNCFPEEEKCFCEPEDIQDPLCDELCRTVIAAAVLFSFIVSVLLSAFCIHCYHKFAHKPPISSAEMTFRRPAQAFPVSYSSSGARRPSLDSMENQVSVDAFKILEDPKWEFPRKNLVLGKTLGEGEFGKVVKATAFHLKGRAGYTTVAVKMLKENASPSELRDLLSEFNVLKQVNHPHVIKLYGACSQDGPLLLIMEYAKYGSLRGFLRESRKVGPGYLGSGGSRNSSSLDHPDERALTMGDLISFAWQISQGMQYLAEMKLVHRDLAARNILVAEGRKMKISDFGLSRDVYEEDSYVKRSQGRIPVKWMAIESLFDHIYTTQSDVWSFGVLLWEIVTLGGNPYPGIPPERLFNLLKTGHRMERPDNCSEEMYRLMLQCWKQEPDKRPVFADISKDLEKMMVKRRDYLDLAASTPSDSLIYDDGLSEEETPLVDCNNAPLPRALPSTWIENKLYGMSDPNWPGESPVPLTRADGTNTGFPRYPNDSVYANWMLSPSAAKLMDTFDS
Sequence of various kinases (Homo sapiens, UniProt Q07912) (Q07912 whole entry): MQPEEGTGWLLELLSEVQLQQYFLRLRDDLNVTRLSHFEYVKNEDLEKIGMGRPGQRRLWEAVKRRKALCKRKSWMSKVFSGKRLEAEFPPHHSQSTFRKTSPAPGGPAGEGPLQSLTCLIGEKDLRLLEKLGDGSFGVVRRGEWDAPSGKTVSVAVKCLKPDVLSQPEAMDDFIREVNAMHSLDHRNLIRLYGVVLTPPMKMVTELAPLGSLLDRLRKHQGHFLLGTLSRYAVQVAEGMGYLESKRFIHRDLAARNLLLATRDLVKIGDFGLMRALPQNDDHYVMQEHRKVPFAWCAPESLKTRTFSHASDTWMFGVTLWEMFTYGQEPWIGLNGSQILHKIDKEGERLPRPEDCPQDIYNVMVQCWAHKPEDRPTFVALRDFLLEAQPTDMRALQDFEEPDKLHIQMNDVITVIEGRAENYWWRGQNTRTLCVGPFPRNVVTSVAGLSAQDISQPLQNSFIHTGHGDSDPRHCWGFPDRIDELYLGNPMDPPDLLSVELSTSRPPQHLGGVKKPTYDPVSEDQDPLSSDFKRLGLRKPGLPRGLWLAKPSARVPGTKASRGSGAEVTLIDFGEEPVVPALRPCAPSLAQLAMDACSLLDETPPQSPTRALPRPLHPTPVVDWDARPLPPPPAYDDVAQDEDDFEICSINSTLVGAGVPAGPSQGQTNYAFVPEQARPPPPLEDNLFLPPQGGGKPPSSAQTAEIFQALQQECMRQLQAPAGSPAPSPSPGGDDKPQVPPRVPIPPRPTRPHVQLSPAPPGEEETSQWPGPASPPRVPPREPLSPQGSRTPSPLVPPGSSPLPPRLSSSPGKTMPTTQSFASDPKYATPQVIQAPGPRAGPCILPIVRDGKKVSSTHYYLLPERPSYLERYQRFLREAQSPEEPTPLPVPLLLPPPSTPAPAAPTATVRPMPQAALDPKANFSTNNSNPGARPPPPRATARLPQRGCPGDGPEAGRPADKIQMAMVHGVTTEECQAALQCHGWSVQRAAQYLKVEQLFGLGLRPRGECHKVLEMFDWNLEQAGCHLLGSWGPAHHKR
Sequence of various kinases (Homo sapiens, UniProt O00311) (O00311 whole entry): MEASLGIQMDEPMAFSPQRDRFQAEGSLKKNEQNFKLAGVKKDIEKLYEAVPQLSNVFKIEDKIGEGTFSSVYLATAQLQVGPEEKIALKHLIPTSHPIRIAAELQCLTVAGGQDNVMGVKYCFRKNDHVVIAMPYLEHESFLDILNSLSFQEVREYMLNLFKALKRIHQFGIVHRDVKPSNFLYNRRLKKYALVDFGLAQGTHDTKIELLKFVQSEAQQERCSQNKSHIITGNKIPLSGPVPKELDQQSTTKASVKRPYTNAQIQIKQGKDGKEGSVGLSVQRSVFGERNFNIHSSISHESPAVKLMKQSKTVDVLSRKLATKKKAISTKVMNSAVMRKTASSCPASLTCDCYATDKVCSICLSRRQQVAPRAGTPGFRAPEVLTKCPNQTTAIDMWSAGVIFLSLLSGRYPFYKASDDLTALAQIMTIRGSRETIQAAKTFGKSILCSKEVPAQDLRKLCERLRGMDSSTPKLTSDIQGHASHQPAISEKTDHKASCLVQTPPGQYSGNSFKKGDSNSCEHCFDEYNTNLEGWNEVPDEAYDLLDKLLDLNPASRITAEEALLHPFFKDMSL
Sequence of various kinases (Homo sapiens, UniProt Q04771, R206H) (Q04771 21-509 R206H): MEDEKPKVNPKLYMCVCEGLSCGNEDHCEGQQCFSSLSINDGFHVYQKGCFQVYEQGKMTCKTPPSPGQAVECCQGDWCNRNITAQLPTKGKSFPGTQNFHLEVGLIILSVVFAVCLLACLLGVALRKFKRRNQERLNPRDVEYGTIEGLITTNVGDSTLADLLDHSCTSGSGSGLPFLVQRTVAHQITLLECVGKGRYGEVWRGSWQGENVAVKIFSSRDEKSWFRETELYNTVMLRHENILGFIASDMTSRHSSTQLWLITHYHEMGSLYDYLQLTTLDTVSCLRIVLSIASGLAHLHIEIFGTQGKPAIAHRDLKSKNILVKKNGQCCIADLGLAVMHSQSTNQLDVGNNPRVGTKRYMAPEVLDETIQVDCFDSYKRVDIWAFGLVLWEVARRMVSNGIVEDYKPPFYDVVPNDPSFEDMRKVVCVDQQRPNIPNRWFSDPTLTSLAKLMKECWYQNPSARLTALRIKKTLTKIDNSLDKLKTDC
Sequence of various kinases (Homo sapiens, UniProt Q13555) (Q13555 whole entry): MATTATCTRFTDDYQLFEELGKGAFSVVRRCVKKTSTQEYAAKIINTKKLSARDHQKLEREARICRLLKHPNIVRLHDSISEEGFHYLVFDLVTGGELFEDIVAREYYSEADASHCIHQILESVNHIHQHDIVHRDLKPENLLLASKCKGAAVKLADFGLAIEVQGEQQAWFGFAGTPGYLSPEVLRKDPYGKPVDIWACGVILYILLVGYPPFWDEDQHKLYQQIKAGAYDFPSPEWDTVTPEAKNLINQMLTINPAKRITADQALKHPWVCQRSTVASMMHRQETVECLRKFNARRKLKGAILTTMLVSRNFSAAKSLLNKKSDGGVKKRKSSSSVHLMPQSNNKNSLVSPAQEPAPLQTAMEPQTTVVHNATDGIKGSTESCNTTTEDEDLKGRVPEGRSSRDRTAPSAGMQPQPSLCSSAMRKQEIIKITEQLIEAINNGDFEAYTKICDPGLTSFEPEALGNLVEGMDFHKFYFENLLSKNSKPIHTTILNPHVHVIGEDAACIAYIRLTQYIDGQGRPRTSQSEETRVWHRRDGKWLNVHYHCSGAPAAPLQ
Sequence of various kinases (Homo sapiens, UniProt Q16832, N456S) (Q16832 22-855 N456S): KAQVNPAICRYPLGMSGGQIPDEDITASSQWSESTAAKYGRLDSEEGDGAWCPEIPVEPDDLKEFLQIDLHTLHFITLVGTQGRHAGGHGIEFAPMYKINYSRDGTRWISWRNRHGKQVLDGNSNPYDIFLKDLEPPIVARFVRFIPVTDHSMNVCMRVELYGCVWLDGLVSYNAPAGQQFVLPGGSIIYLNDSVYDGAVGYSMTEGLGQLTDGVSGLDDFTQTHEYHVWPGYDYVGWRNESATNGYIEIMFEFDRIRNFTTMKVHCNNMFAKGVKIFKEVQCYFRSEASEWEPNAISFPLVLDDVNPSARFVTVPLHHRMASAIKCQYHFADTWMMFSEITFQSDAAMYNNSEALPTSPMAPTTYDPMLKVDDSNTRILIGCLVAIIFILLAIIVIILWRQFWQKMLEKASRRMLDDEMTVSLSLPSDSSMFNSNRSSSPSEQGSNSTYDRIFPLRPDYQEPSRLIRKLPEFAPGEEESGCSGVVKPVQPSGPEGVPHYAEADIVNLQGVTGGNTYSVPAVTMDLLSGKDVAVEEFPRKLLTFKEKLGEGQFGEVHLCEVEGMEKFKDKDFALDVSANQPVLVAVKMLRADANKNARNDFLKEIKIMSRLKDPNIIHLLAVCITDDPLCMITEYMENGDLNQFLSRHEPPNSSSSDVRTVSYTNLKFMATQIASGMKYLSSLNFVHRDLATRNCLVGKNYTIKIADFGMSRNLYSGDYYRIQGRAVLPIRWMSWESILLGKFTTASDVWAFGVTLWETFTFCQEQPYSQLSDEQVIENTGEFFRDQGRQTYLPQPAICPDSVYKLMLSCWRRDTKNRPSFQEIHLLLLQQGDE
Sequence of various kinases (Homo sapiens, UniProt Q8NI60) (Q8NI60 163-647): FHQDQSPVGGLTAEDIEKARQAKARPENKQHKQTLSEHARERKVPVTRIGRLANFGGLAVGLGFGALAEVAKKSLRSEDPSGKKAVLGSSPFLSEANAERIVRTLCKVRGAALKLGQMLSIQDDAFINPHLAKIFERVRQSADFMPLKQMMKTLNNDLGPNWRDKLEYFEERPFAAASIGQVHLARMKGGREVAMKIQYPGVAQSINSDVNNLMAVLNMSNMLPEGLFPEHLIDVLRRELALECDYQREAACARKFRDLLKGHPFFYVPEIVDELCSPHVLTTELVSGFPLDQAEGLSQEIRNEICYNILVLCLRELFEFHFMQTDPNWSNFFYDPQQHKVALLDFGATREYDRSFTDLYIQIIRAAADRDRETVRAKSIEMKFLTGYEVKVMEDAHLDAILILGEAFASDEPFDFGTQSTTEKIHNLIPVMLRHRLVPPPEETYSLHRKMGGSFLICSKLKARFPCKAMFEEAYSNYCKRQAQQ

How did the “% Inhibition Average” value (various kinases [1]) turn out when `COc1ccc2c(c1)[C@]1(C[C@H]1c1ccc3c(/C=C/c4ccc(CN5C[C@@H](C)O[C@@H](C)C5)cc4)n[nH]c3c1)C(=O)N2` [CFI-400945] was run?
The value was 6%.

And the “% Inhibition Duplicate #1” value (various kinases [1])?
Its value is 4%.

What about the “% Inhibition Duplicate #2” value (various kinases [1]) of the same compound?
Its value is 7%.

What about the “% Inhibition Average” value (various kinases [2]) of the same compound?
Its value is 34%.

What about the “% Inhibition Duplicate #1” value (various kinases [2]) of the same compound?
Its value is 29%.

And the “% Inhibition Duplicate #2” value (various kinases [2])?
The value was 39%.

What about the “% Inhibition” value (various kinases [3]) of the same compound?
The value was 50% and 36%.

What about the “% Inhibition” value (various kinases [4]) of the same compound?
Its value is 13% and 16%.

And the “% Inhibition” value (various kinases [5])?
The value was 77% and 74%.

And the “% Inhibition” value (various kinases [6])?
The value was 9% and 13%.

And the “% Inhibition” value (various kinases [7])?
The value was 1% and -2%.

And the “% Inhibition Average” value (various kinases [8])?
Its value is 20%.

What about the “% Inhibition Duplicate #1” value (various kinases [8]) of the same compound?
Its value is 18%.

What about the “% Inhibition Duplicate #2” value (various kinases [8]) of the same compound?
The value was 22%.

What about the “% Inhibition” value (various kinases [9]) of the same compound?
The value was 9% and 8%.

What about the “% Inhibition Average” value (various kinases [10]) of the same compound?
Its value is 9%.

What about the “% Inhibition Duplicate #1” value (various kinases [10]) of the same compound?
The value was 11%.

And the “% Inhibition Duplicate #2” value (various kinases [10])?
Its value is 8%.

And the “% Inhibition” value (various kinases [11])?
Its value is -6% and -3%.

What about the “% Inhibition” value (various kinases [12]) of the same compound?
Its value is 11% and 15%.

What about the “% Inhibition” value (various kinases [13]) of the same compound?
Its value is 10% and 0%.

What about the “% Inhibition” value (various kinases [14]) of the same compound?
Its value is -1% and -4%.

What about the “% Inhibition” value (various kinases [15]) of the same compound?
The value was 7% and 2%.
